The text below walks through data of ChEMBL document CHEMBL1124314, “Development of phosphonate derivatives of gadolinium chelates for NMR imaging of calcified soft tissues” (J Med Chem, 1989).

The structures appear in SMILES notation.

Data set [1] is filed under the species Rattus norvegicus. Put plainly: Uptake of [GD] in bone 1 hr post injection with NCA GD dose. The class given is functional, Bone element.
Data set [2] can be described thus: Ratio of uptake of [GD] in bone 1 hr post injection with NCA GD dose to that of muscle. The class given is functional.
The nature of data set [3]: Ratio of uptake of [GD] in bone 1 hr post injection with 0.01 (N) to that of blood.
The species entered for data set [4] is Rattus norvegicus. The data set is described as follows: Biodistribution in rat bone in the presence of NCAGd/0.01 M lig. The class given is ADME, organism-based, Bone element. The following applies: in vivo.
For data set [5], the species on record is Rattus norvegicus. Put plainly: Biodistribution in rat heart in the presence of NCAGd/0.01 M lig. Format: ADME, organism-based. The following applies: in vivo.
The species entered for data set [6] is Rattus norvegicus. The data set is described as follows: Biodistribution in rat kidney in the presence of NCAGd/0.01 M lig. The class given is ADME, organism-based. The following applies: in vivo.
The species entered for data set [7] is Rattus norvegicus. The data set is described as follows: Uptake of [GD] in bone 1 hr post injection with 0.01 (N) of the compound.
The species named for data set [8] is Rattus norvegicus. Put plainly: Biodistribution in rat spleen in the presence of NCAGd/0.01 M lig. Format: ADME, organism-based. As to conditions: in vivo.
For data set [9], the species on record is Rattus norvegicus. Put plainly: Biodistribution in rat liver by in the presence of NCAGd/0.01 M lig. The class given is ADME, organism-based. As to conditions: in vivo.
Data set [10] is filed under the species Rattus norvegicus. The data set is described as follows: Biodistribution in rat muscle in the presence of NCAGd/0.01 M lig. The class given is ADME, organism-based, Muscle tissue. As to conditions: in vivo.
Data set [11] is filed under the species Rattus norvegicus. The data set is described as follows: Uptake of [GD] in bone 1 h post injection with 0.01 of the compound. Format: functional, Bone element.
The species named for data set [12] is Rattus norvegicus. Put plainly: Biodistribution in rat blood in the presence of NCAGd/0.01 M lig. The following applies: in vivo. The class given is ADME, organism-based.
Data set [13] is described as follows: Ratio of uptake of [GD] in bone 1 hr post injection with 0.01 to that of muscle. Format: functional.
Data set [14] in a line: Ratio of uptake of [GD] in bone 1 hr post injection with 0.01 (N) to that of muscle.
Data set [15] can be described thus: Ratio of uptake of [GD] in bone 1 hr post injection with 0.10 to that of muscle. Format: functional.
The species entered for data set [16] is Rattus norvegicus. The data set is described as follows: Uptake of [GD] in bone 1 hr post injection with 0.02 of the compound. Format: functional, Bone element.
Data set [17] in a line: Ratio of uptake of [GD] in bone 1 hr post injection with 0.05 to that of blood. Format: functional.
Data set [18] is described as follows: Uptake of [GD] in bone 1 hr post injection with NCA GD dose to that of muscle. The class given is functional, Muscle tissue.
For data set [19], the species on record is Rattus norvegicus. Put plainly: Uptake of [GD] in bone 1 hr post injection with 0.20 of the compound. Format: functional, Bone element.
Data set [20] in a line: Ratio of uptake of [GD] in bone 1 hr post injection with 0.05 to that of muscle. Format: functional.
Data set [21] is filed under the species Rattus norvegicus. Put plainly: Uptake of [GD] in bone 1 hr post injection with 0.005 of the compound. Format: functional, Bone element.
For data set [22], the species on record is Rattus norvegicus. Put plainly: Uptake of [GD] in bone 1 hr post injection with 0.05 of the compound. The class given is functional, Bone element.
Data set [23] is described as follows: Ratio of uptake of [GD] in bone 1 hr post injection with 0.005 to that of blood. Format: functional.
The nature of data set [24]: Ratio of uptake of [GD] in bone 1 hr post injection with 0.20 to that of blood. The class given is functional.
Data set [25] is described as follows: Ratio of uptake of [GD] in bone 1 hr post injection with 0.02 to that of blood. The class given is functional.
The species entered for data set [26] is Rattus norvegicus. The data set is described as follows: Uptake of [GD] in bone 1 hr post injection with 0.10 of the compound. The class given is functional, Bone element.
The nature of data set [27]: Ratio of uptake of [GD] in bone 1 hr post injection with 0.20 to that of muscle. Format: functional.
Data set [28] is described as follows: Ratio of uptake of [GD] in bone 1 hr post injection with 0.10 to that of blood. Format: functional.
A short description of data set [29]: Ratio of uptake of [GD] in bone 1 hr post injection with 0.02 to that of muscle. Format: functional.
Data set [30] in a line: Ratio of uptake of [GD] in bone 1 hr post injection with NCA GD dose to that of blood. Format: functional.
Data set [31] can be described thus: Ratio of uptake of [GD] in bone 1 hr post injection with 0.005 to that of muscle. The class given is functional.
Data set [32] can be described thus: Ratio of uptake of [GD] in bone 1 hr post injection with 0.01(N) to that of muscle. Format: functional.
The nature of data set [33]: Ratio of uptake of [GD] in bone 1 hr post injection with 0.01(A) to that of blood. Format: functional.
Data set [34] can be described thus: Ratio of uptake of [GD] in bone 1 h post injection with 0.01(N) to that of blood. Format: functional.
The species entered for data set [35] is Rattus norvegicus. Put plainly: Uptake of [GD] in bone 1 hr post injection with 0.01(A) of the compound. The class given is functional, Bone element.
The nature of data set [36]: Ratio of uptake of [GD] in bone 1 hr post injection with 0.01(A) to that of muscle. The class given is functional.
For data set [37], the species on record is Rattus norvegicus. Put plainly: Uptake of [GD] in bone 1 hr post injection with 0.01(N) of the compound. The class given is functional, Bone element.

For `CC(C)(CO)NCCNC(C)(C)CO`, the ID in [1] is given as 27.7%; in data set [7] it was 2.56%; in data set [11], 7.23%. The Ratio in data set [2] is 6.78%; in data set [3] it was 0.135%; in data set [13], 1.61%; in data set [14], 1.47%. Further, the ID/organ in [4] is 27.7%; in data set [5] it was 0.28%; in data set [6], 2.85%; in [8] it was 0.19%; in data set [9], 41%; in data set [10], 4.09%. In addition, the ID/organ in [12] is on record as 7.25%.
On to `O=C(O)CN(CCN(CC(=O)O)CC(=O)O)CCN(CC(=O)O)CC(=O)NCCC(O)P(=O)(O)OP(=O)(O)O` (stereo unspecified), for which the ID in [1] was found to be 57%; in data set [16], 28.9%; in data set [19] it was 13.5%; in [21], 44.4%; in data set [22], 21.2%; in data set [26], 16.1%. Besides, the Ratio was 12.5 in data set [15]; 29.8 in [17]; 70.6 in data set [18]; 19.6 in data set [20]; 110.4 in data set [23]; 13.9 in data set [24]. Besides, the Ratio in [25] came to 34.9; in data set [27] it was 8.08; in [28] it was 25.7; in data set [29], 20.1; in [30], 108; in [31] it was 52.7.
As to `OC(CNCCNCC(O)c1ccccc1)c1ccccc1` (stereo unspecified), the ID in [1] is on record as 56.8%; in data set [35], 6.37%; in [37], 6.36%. Also, the Ratio worked out at 2.14% in [32], 0.139% in [33], 0.188 in data set [34] and 1.6% in [36]. Moreover, the ID/organ was determined as 56.8% in [4]; 0.34% in data set [5]; 3.57% in [6]; 0.135% in data set [8]; 20.9% in data set [9]; 6.09% in data set [10]. For the same molecule, the ID/organ in [12] is recorded as 2.35%.
